Measurements: patent publication US4268510A, “1,3-Benzoxazine trichloromethyl derivatives, compositions and use” (Imperial Chemical Industries Limited, priority 1978, dated 1981)
In brackets after ≈: the same amount, converted by molar mass.

Tested on: methane production from ruminal fluid
Assay: in vitro assay of inhibition of methane production from ruminal fluid
Type: cell-based, steers (pooled rumen fluid)
Conditions: at 1 μg./ml.; in vitro rumen fluid, 39° C., 15-16 hours
Experimental: Rumen fluid is collected on a regular routine basis from two steers, which are fed on the same hay-plus-concentrate diet. Sampling time is standardised as far as possible, and the fluid from the two animals is pooled on a 50/50 basis. Large particulate matter is removed by filtering the pooled fluid through four layers of muslin cloth. The filtrate is then diluted in the ratio of one volume of filtrate to three volumes of an artificial rumen fluid (prepared as described by G. L. Bales et al., Journal of Dairy Science, 1976, volume 59, page 1850, but omitting acetic acid), and the pH of the mixture is adjusted to 6.9-7.0 with saturated aqueous sodium carbonate solution. Aliquots (50 ml.) of this mixture are dispensed into 100 ml. conical flasks containing dried ground hay (0.5 g.), and each flask is used to test a test compound at a particular concentration.
The test compound is added to the conical flask as a solution in ethanol, the flask is flushed with carbon dioxide gas, stoppered with a suba-seal, and incubated at 39° C. for 15-16 hours. After one hour, a narrow bore needle is inserted through the suba-seal to relieve the gas pressure, and the needle is withdrawn 30 minutes before the incubation is ended. Fermentation is then stopped by placing the flask in ice, and after 15 minutes cooling, the gas over the liquid is analysed for methane by gas chromatography, and the concentration of the test compound required to produce a 50% reduction in methane production (ED50 in μg./ml.) is calculated.
The test of methane inhibition described in Example 12 was repeated for various other compounds, to give the results shown below. The results are expressed as the percentage inhibition of methane production caused by 1 μg./ml. of a test compound, except for those compounds indicated by *, for which 3 μg./ml. was used.

Structure (SMILES)	inhibition at 1 µg/mL
O=C(O)c1cc(C(=O)O)c2c(c1)C(=O)NC(C(Cl)(Cl)Cl)O2 (stereo not shown) [drawing 8; R1=COOH; R3=COOH; R5=H, 3,4-dihydro-4-oxo-2-trichloromethyl-2H-benzo[e]-[1,3]-oxazine-6,8-dicarboxylic acid]	38%
CC(=O)Nc1ccc2c(c1)C(=O)NC(C(Cl)(Cl)Cl)O2 (stereo not shown) [drawing 8; R1=H; R3=CH3 CONH; R5=H, 6-acetamido-3,4-dihydro-2-trichloromethyl-2H-benzo[e]-[1,3]-oxazin-4-one]	96%
O=Cc1ccc2c(c1)C(=O)NC(C(Cl)(Cl)Cl)O2 (stereo not shown) [drawing 8; R1=H; R3=CHO; R5=H]	47%
CN1C(=O)c2ccccc2OC1C(Cl)(Cl)Cl (stereo not shown) [drawing 8; R1=H; R3=H; R5=CH3, 3,4-dihydro-3-methyl-2-trichloromethylbenzo[e]-[1,3]-oxazin-4-one]	100%
O=C1NC(C(Cl)(Cl)Cl)Oc2ccc(C=NO)cc21 (stereo not shown) [drawing 8; R1=H; R3=HO . N:CH; R5=H, 3,4-dihydro-6-hydroxyiminomethyl-2-trichloromethyl-2-H-benzo[e]-[1,3]-oxazin-4-one]	41%
Nc1ccc2c(c1)C(=O)NC(C(Cl)(Cl)Cl)O2 (stereo not shown) [drawing 8; R1=H; R3=NH2; R5=H, 6-amino-3,4-dihydro-2-trichloromethyl-2H-benzo[e]-[1,3]-oxazin-4-one]	98%
O=C1NC(C(Cl)(Cl)Cl)Oc2ccc(S(=O)(=O)O)cc21 (stereo not shown) [drawing 8; R1=H; R3=SO3 H; R5=H]	11%
Cc1cccc2c1NC(C(Cl)(Cl)Cl)OC2 (stereo not shown) [drawing 9; R1=CH3; R3=H; R11=H, 1,2-dihydro-8-methyl-2-trichloromethyl-4H-benzo[d]-[1,3]-oxazine]	100%
CC(=O)Oc1ccc2c(c1)COC(C(Cl)(Cl)Cl)N2 (stereo not shown) [drawing 9; R1=H; R3=CH3 CO . O; R11=H, 6-acetoxy-1,2-dihydro-2-trichloromethyl-4H-benzo[d]-[1,3]-oxazine]	30%
COC(=O)c1ccc2c(c1)COC(C(Cl)(Cl)Cl)N2 (stereo not shown) [drawing 9; R1=H; R3=CH3 O . CO; R11=H, methyl 1,2-dihydro-2-trichloromethyl-4H-benzo[d]-[1,3]-oxazine-6-carboxylate]	100%
Clc1ccc2c(c1)COC(C(Cl)(Cl)Cl)N2 (stereo not shown) [drawing 9; R1=H; R3=Cl; R11=H, 6-chloro-1,2-dihydro-2-trichloromethyl-4H-benzo[d]-[1,3]-oxazine]	100%
CCOC(=O)C1OC(C(Cl)(Cl)Cl)Nc2ccccc21 (stereo not shown) [drawing 9; R1=H; R3=H; R11=C2 H5 O . CO, ethyl 1,2-dihydro-2-trichloromethyl-4H-benzo[d]-[1,3]oxazine-4-carboxylate]	24%
O=C(Nc1ccccc1)C1OC(C(Cl)(Cl)Cl)Nc2ccccc21 (stereo not shown) [drawing 9; R1=H; R3=H; R11=C6 H5 NH . CO, N-phenyl 1,2-dihydro-2-trichloromethyl-4H-benzo[d]-[1,3]-oxazine-4-carboxamide]	57%
COC(=O)C1OC(C(Cl)(Cl)Cl)Nc2ccccc21 (stereo not shown) [drawing 9; R1=H; R3=H; R11=CH3 O . CO, methyl 1,2-dihydro-2-trichloromethyl-4H-benzo[d]-[1,3]-oxazine-4-carboxylate]	46%
O=C(O)C1OC(C(Cl)(Cl)Cl)Nc2ccccc21 (stereo not shown) [drawing 9; R1=H; R3=H; R11=COOH, 1,2-dihydro-2-trichloromethyl-4H-benzo-[d]-[1,3]-oxazine-4-carboxylic acid]	14%
CC(C)OC(=O)C1OC(C(Cl)(Cl)Cl)Nc2ccccc21 (stereo not shown) [drawing 9; R1=H; R3=H; R11=i-C3 H7 O . CO, isopropyl 1,2-dihydro-2-trichloromethyl-4H-benzo[d]-[1,3]-oxazine-4-carboxylate]	37%
CCCOC(=O)C1OC(C(Cl)(Cl)Cl)Nc2ccccc21 (stereo not shown) [drawing 9; R1=H; R3=H; R11=n-C3 H7 O . CO, propyl 1,2-dihydro-2-trichloromethyl-4H-benzo[d]-[1,3]-oxazine-4-carboxylate]	31%
CCCCOC(=O)C1OC(C(Cl)(Cl)Cl)Nc2ccccc21 (stereo not shown) [drawing 9; R1=H; R3=H; R11=n-C4 H9 O . CO, butyl 1,2-dihydro-2-trichloromethyl-4H-benzo[d]-[1,3]-oxazine-4-carboxylate]	12%
CC(=O)N1C(=O)c2ccccc2N(C(C)=O)C1C(Cl)(Cl)Cl (stereo not shown) [drawing 10; R3=H; R5=CH3 CO; R6=CH3 CO, 1,3-diacetyl-1,2-dihydro-2-trichloromethylquinazolin-4-one]	90%

Same assay, conditions: at 3 μg./ml.; in vitro rumen fluid, 39° C., 15-16 hours; read-out: % Methane Inhibition (compounds indicated by *)

Structure (SMILES)	inhibition at 3 µg/mL
N#Cc1ccc2c(c1)C(=O)NC(C(Cl)(Cl)Cl)O2 (stereo not shown) [drawing 8; R1=H; R3=CN; R5=H, 3,4-dihydro-4-oxo-2-trichloromethyl-2H-benzo[e]-[1,3]-oxazine-6-carbonitrile]	87%
CCOC(=O)c1ccc2c(c1)C(=O)NC(C(Cl)(Cl)Cl)N2 (stereo not shown) [drawing 10; R3=C2 H5 O . CO; R5=H; R6=H, ethyl 1,2-dihydro-4-oxo-2-trichloromethylquinazoline-6-carboxylate]	71%
O=C(O)c1ccc2c(c1)C(=O)NC(C(Cl)(Cl)Cl)N2 (stereo not shown) [drawing 10; R3=COOH; R5=H; R6=H, 1,2-dihydro-4-oxo-2-trichloromethylquinazoline-6-carboxylic acid]	5%

Same assay, conditions: in vitro, diluted rumen fluid with dried ground hay, pH 6.9-7.0, 39° C., 15-16 hours; read-out: ED50, concentration of the test compound required to produce a 50% reduction in methane production

IC50	Structure (SMILES)
0.5 µg/mL (≈ 1.68 µM)	O=[N+]([O-])c1ccc2c(c1)COC(C(Cl)(Cl)Cl)N2 (stereo not shown) [drawing 7; R3=NO2, 1,2-dihydro-6-nitro-2-trichloromethyl-4H-benzo[d]-[1,3]oxazine]

Tested on: rumen metabolism
Assay: not given
Conditions: known prior art, administered to ruminant animals; cited from earlier work

Structure (SMILES)	effect on rumen metabolism (reducing methane production)
O=CC(Cl)(Cl)Cl [chloral]	beneficial effect on rumen metabolism
NC(=O)C(Cl)(Cl)Cl [trichloroacetamide]	beneficial effect on rumen metabolism
